Patent US20260234165A1, “MACROCYCLIC COMPOUNDS, PREPARATION METHOD THEREFOR, AND USE THEREOF” (GENFLEET THERAPEUTICS (SHANGHAI) INC., priority 2004, published 2026)
Read-outs that look alike come from different tables or passages of the source.

How the values were obtained:
Assay type in all cases: cell-based, human
[1] = tested on: p-ERK in NCI-H441 cells (KRAS G12V mutation); assay: Cell p-ERK assay (HTRF) in NCI-H441 cells; conditions: NCI-H441 cells, 3 h compound incubation, HTRF p-ERK T202/Y204, read-out: H441 p-ERK IC50
In short: (§1)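 In this cellular format, endogenous KRAS-mutant lines grown in RPMI-1640 plus 10% FBS received graded compound concentrations for 3 h at 37 °C. Lysates were incubated 4 h with the phospho-T202/Y204 ERK HTRF antibody pair, and percent inhibition relative to DMSO and blank wells was curve-fitted to give IC50.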

[2] = tested on: p-ERK in AsPC-1 cells (KRAS G12D mutation); assay: Cell p-ERK assay (HTRF) in AsPC-1 cells; conditions: AsPC-1 cells, 3 h compound incubation, HTRF p-ERK T202/Y204, read-out: AsPC-1 p-ERK IC50
In short: as §1

[3] = tested on: AsPC-1 cells (KRAS G12D mutation); assay: 3D cell proliferation assay (CellTiter Glo-3D), AsPC-1; conditions: medium with 2% FBS, read-out: AsPC-1 AP IC50
In short: (§2)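 Five-day treatment of NCI-H441 or AsPC-1 cells (800/well, 2% FBS RPMI-1640, 0.1% DMSO) with graded compound concentrations; ATP content by CellTiter-Glo 3D; IC50 fitted.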

[4] = tested on: NCI-H441 cells; assay: 3D cell proliferation assay (CellTiter Glo-3D), NCI-H441; conditions: medium with 2% FBS, read-out: H441 AP IC50
In short: as §2

[5] = Homo sapiens, ASPC1, 3D cell proliferation (CellTiter Glo-3D)
[6] = Homo sapiens, NCI-H441, 3D cell proliferation (CellTiter Glo-3D)
[7] = 3D cell proliferation (CellTiter Glo-3D)

| SMILES | IC50 ([1]; Homo sapiens, NCI-H441, 3 h) | IC50 ([2]; Homo sapiens, ASPC1, 3 h) | IC50 [3, 5] | IC50 [4, 6] | IC50 [1] | IC50 [2] | IC50 [3, 7] | IC50 [4, 7] |
| --- | --- | --- | --- | --- | --- | --- | --- | --- |
| CCn1c(-c2cc(OCC3(N4CCS(=O)(=O)CC4)CC3)cnc2[C@H](C)OC)c2c3cc(ccc31)-c1csc(n1)C[C@H](NC(=O)[C@H]1[C@H](C)[C@@H]1C)C(=O)N1CCC[C@H](N1)C(=O)OCC(C)(C)C2 (atropisomer, axis not shown; (Ra)) [Compound Z614, (1r,2R,3S)—N-((6^3S,4S,Z)-1^2-(5-((1-(1,1-dioxidothiomorpholino)cyclopropyl)methoxy)-2-((S)-1-methoxyethyl)pyridin-3-yl)-1^1-ethyl-(Ra)-10,10-dimethyl-5,7-dioxo-6^1,6^2,6^3,6^4,6^5,6^6-hexahydro-1^1hydrogen-8-oxa-2(4,2)-thiazola-1(5,3)-indola-6(1,3)-pyridazinacycloundecaphane-4-yl)-2,3-dimethylcyclopropane-1-carboxamide] | 0.23 nM | 0.09 nM | 0.11 nM | 0.15 nM |  |  |  |  |
| CO[C@@H](C)c1ncc(OCCN2CCS(=O)(=O)CC2)cc1-c1c2c3cc(ccc3n1C(C)C)-c1csc(n1)C[C@H](NC(=O)[C@H]1[C@H](C)[C@@H]1C)C(=O)N1CCC[C@H](N1)C(=O)OCC(C)(C)C2 (atropisomer, axis not shown; (Ra)) [Compound Z678, (1r,2R,3S)—N-((6^3S,4S,Z)—(Ra)-1^2-(5-(2-(1,1-dioxidothiomorpholino)ethoxy)-2-((S)-1-methoxyethyl)pyridin-3-yl)-1^1-isopropyl-10,10-dimethyl-5,7-dioxo-6^1,6^2,6^3,6^4,6^5,6^6-hexahydro-1^1H-8-oxa-2(4,2)-thiazola-1(5,3)-indola-6(1,3)-pyridazinacycloundecaphane-4-yl)-2,3-dimethylcyclopropane-1-carboxamide] |  |  |  |  | 0.17 nM | 0.06 nM | 0.17 nM | 0.06 nM |
| CO[C@@H](C)c1ncc(OCCN2CCOC3(CC3)C2)cc1-c1c2c3cc(ccc3n1CC(F)(F)F)-c1csc(n1)C[C@H](NC(=O)[C@H]1[C@H](C)[C@@H]1C)C(=O)N1CCC[C@H](N1)C(=O)OCC1(CC1)C2 (atropisomer, axis not shown; (Ra)) [Compound Z380, (1r,2R,3S)—N-((3′S,4′S,Z)—(Ra)-2′-(5-(2-(4-oxa-7-azaspiro[2,5]octan-7-yl)ethoxy)-2-((S)-1-methoxyethyl)pyridin-3-yl)-5′,7′-dioxo-1′-(2,2,2-trifluoroethyl)spiro[cyclopropane-1,10′-8-oxa-2(4,2)-thiazola-1(5,3)-indola-6(1,3)-pyridazinacycloundecaphan]-4-yl)-2,3-dimethylcyclopropane-1-carboxamide] |  |  |  |  | 3.67 nM | 9.45 nM | 6.28 nM | 4.75 nM |
| CO[C@@H](C)c1ncc(OCCN2CCS(=O)(=O)CC2)cc1-c1c2c3cc(ccc3n1C(C)C)-c1csc(n1)C[C@H](NC(=O)[C@H]1C[C@@H]1C)C(=O)N1CCC[C@H](N1)C(=O)OCC(C)(C)C2 (atropisomer, axis not shown; (Ra)) [Compound Z603, (1S,2S)—N-((6^3S,4S,Z)—(Ra)-1^2-(5-(2-(1,l-dioxidothiomorpholino)ethoxy)2-((S)-1-methoxyethyl)pyridin-3-yl)-1^1-isopropyl-10,10-dimethyl-5,7-dioxo-6^1,6^2,6^3,6^4,6^5,6^6-hexahydro-1^1H-8-oxa-2(4,2)-thiazola-1(5,3)-indola-6(1,3)-pyridazinacycloundecaphane-4-yl)-2-methylcyclopropane-1-carboxamide] | 0.22 nM | 0.6 nM | 0.89 nM | 0.31 nM |  |  |  |  |

Results, then the compound that gave them:

| IC50 ([1]; Homo sapiens, NCI-H441, 3 h) | IC50 ([2]; Homo sapiens, ASPC1, 3 h) | IC50 [3, 5] | IC50 [4, 6] | IC50 [1] | IC50 [2] | IC50 [3, 7] | IC50 [4, 7] | SMILES |
| --- | --- | --- | --- | --- | --- | --- | --- | --- |
| 1.16 nM | 2.62 nM | 5.52 nM | 2.32 nM |  |  |  |  | CCn1c(-c2cc(C#CCN3CCCOCC3)cnc2[C@H](C)OC)c2c3cc(ccc31)-c1csc(n1)C[C@H](NC(=O)C[C@H]1CC1(F)F)C(=O)N1CCC[C@H](N1)C(=O)OCC(C)(C)C2 (atropisomer, axis not shown; (Ra)) [Compound Z932-2, N-((6^3S,4S,Z)—(Ra)-1^2-(5-(3-(1,4-oxazepan-4-yl)prop-1-yn-1-yl)-2-((S)-1-methoxyethyl)pyridin-3-yl)-1^1-ethyl-10,10-dimethyl-5,7-dioxo-6^1,6^2,6^3,6^4,6^5,6^6-hexahydro-1^1H-8-oxa-2(4,2)-thiazola-1(5,3)-indola-6(1,3)-pyridazinacycloundecaphane-4-yl)-2-((S)-2,2-difluorocyclopropyl)acetamide] |
| 0.29 nM | 0.4 nM | 0.65 nM | 0.36 nM |  |  |  |  | CCn1c(-c2cc(C#C[C@]3(C)CCCN3C)cnc2[C@H](C)OC)c2c3cc(ccc31)-c1csc(n1)C[C@H](NC(=O)[C@H]1[C@H](C)[C@@H]1C)C(=O)N1CCC[C@H](N1)C(=O)OCC(C)(C)C2 (atropisomer, axis not shown; (Ra)) [Compound Z642] |
|  |  |  |  | 2.79 nM | 7.39 nM | 5.52 nM | 6.04 nM | CCn1c(-c2cc(C#CCN3CC(F)C3)cnc2[C@H](C)OC)c2c3cc(ccc31)-c1csc(n1)C[C@H](NC(=O)[C@H]1[C@H](C)[C@@H]1C)C(=O)N1CCC[C@H](N1)C(=O)OCC(C)(C)C2 (atropisomer, axis not shown; (Ra)) [Compound Z383-1, (1r,2R,3S)—N-((6^3S,4S,Z)—(Ra)-1^2-(5-(3-(3-fluoroazetidin-1-yl)prop-1-yn-1-yl)-2-((S)-1-methoxyethyl)pyridin-3-yl)-1^1-ethyl-10,10-dimethyl-5,7-dioxo-6^1,6^2,6^3,6^4,6^5,6^6-hexahydro-1^1H-8-oxa-2(4,2)-thiazola-1(5,3)-indola-6(1,3)-pyridazinacycloundecaphane-4-yl)-2,3-dimethylcyclopropane-1-carboxamide] |
|  | 0.51 nM | 0.66 nM |  | 0.51 nM |  |  | 0.36 nM | CCn1c(-c2cc(OCCN3CC[S+]([O-])CC3)cnc2[C@H](C)OC)c2c3cc(ccc31)-c1csc(n1)C[C@H](NC(=O)[C@H]1[C@H](C)[C@@H]1C)C(=O)N1CCC[C@H](N1)C(=O)OCC(C)(C)C2 (atropisomer, axis not shown; (Ra)) [Compound Z600] |
| 0.46 nM | 0.25 nM |  |  |  |  | 0.58 nM | 0.26 nM | CCn1c(-c2cc(C#CCN3CCCOCC3)c[n+]([O-])c2[C@H](C)OC)c2c3cc(ccc31)-c1csc(n1)C[C@H](NC(=O)[C@H]1[C@H](C)[C@@H]1C)C(=O)N1CCC[C@H](N1)C(=O)OCC(C)(C)C2 [Compound Z914, 5-(3-(1,4-oxazepan-4-yl)prop-1-yn-1-yl)-3-((6^3S,4S,Z)-4-((r,2R,3S)-2,3-dimethylcyclopropane-1-carboxamido)-1^1-ethyl-10,10-dimethyl-5,7-dioxo-6^1,6^2,6^3,6^4,6^5,6^6-hexahydro-1^1H-8-oxa-2(4,2)-thiazola-1(5,3)-indola-6(1.3)-pyridazinacycloundecaphane-1^2-yl)-2-((S)-1-methoxyethyl)pyridine-1-oxide] |
